Data: ChEMBL document CHEMBL5331045, “Recent advances in β-lactamase inhibitor chemotypes and inhibition modes” (Eur J Med Chem, 2022)
One block for each compound: values may come before it.

Assays:
[1] = Binding affinity to Escherichia coli CTX-M-9 assessed as inhibition constant using nitrocefin as substrate by microplate reader analysis
[2] = target: Class A carbapenemase KPC-2 (Escherichia coli, UniProt A8DS27); assay: Binding affinity to Escherichia coli KPC-2 assessed as inhibition constant using nitrocefin as substrate by microplate reader analysis
[3] = Binding affinity to Escherichia coli OXA-48 assessed as inhibition constant using nitrocefin as substrate by microplate reader analysis
[4] = Binding affinity to Escherichia coli SHV-2 assessed as inhibition constant using nitrocefin as substrate by microplate reader analysis
Beta-lactamase CTX-M-27 = Beta-lactamase CTX-M-27 (Escherichia coli, UniProt Q840M4); assay: Binding affinity to Escherichia coli CTX-M-27 assessed as inhibition constant using nitrocefin as substrate by microplate reader analysis
[5] = Binding affinity to Escherichia coli CTX-M-15 assessed as inhibition constant using nitrocefin as substrate by microplate reader analysis
Beta-lactamase [6] = target: Beta-lactamase (Escherichia coli K-12, UniProt P00811); assay: Binding affinity to Escherichia coli AmpC assessed as inhibition constant using nitrocefin as substrate by microplate reader analysis
Beta-lactamase CTX-M-14 = Beta-lactamase CTX-M-14 (Escherichia coli, UniProt Q9L5C7); assay: Binding affinity to Escherichia coli CTX-M-14 assessed as inhibition constant using nitrocefin as substrate by microplate reader analysis
Beta-lactamase TEM-1 = Beta-lactamase TEM-1 (Escherichia coli, UniProt Q4GY26); assay: Binding affinity to Escherichia coli TEM1 assessed as inhibition constant using nitrocefin as substrate by microplate reader analysis
[7] = Binding affinity to beta-lactamase AmpC (unknown origin) assessed as inhibition constant by measuring nitrocefin hydrolysis by spectrometric analysis; design: species or system Homo sapiens
Beta-lactamase [8] = target: Beta-lactamase (Pseudomonas aeruginosa (strain ATCC 15692 / PAO1 / 1C / PRS 101 / LMG12228), UniProt P24735); assay: Inhibition of Pseudomonas aeruginosa AmpC
[9] = Inhibition of Pseudomonas aeruginosa OXA-24
[10] = Inhibition of Pseudomonas aeruginosa KPC2
[11] = Inhibition of Enterobacter VIM-2 incubated for 15 mins
[12] = Inhibition of Enterobacter OXA-1 incubated for 15 mins
[13] = Inhibition of Enterobacter SHV-5 incubated for 15 mins
[14] = Inhibition of Enterobacter NDM-1 incubated for 15 mins
[15] = Inhibition of Enterobacter IMP-1 incubated for 15 mins
[16] = Inhibition of Enterobacter CTX-M-15 incubated for 15 mins
[17] = Inhibition of Enterobacter KPC-2 incubated for 15 mins
[18] = Binding affinity to CTX-M-14 (unknown origin) assessed as inhibition constant; design: species or system Homo sapiens
[19] = Binding affinity to KPC-2 (unknown origin) assessed as inhibition constant; design: species or system Homo sapiens
[20] = Inhibition of KPC-2 (unknown origin); design: species or system Homo sapiens
[21] = Binding affinity to Acinetobacter derived cephalosporinase 7 (D24-K383 residues) assessed as inhibition constant
Escherichia coli [22] = assay: Antimicrobial activity against Escherichia coli expressing CTX-M-15 in presence of piperacillin; format: functional
Escherichia coli [23] = assay: Antimicrobial activity against Escherichia coli expressing CMY-2 in presence of piperacillin; format: functional
Escherichia coli [24] = assay: Antimicrobial activity against Escherichia coli expressing OXA-10 in presence of piperacillin; format: functional
Escherichia coli [25] = assay: Antimicrobial activity against Escherichia coli expressing SHV-12 in presence of piperacillin; format: functional
Escherichia coli [26] = assay: Antimicrobial activity against Escherichia coli expressing TEM1 in presence of piperacillin; format: functional
Escherichia coli [27] = assay: Antimicrobial activity against Escherichia coli expressing OXA-48 in presence of piperacillin; format: functional
Escherichia coli [28] = assay: Antimicrobial activity against Escherichia coli expressing KPC-2 in presence of piperacillin; format: functional
Escherichia coli [29] = assay: Antimicrobial activity against Escherichia coli expressing AmpC in presence of piperacillin; format: functional
Escherichia coli [30] = assay: Antimicrobial activity against Escherichia coli expressing OXA-40 in presence of piperacillin; format: functional
Escherichia coli [31] = assay: Antimicrobial activity against Escherichia coli expressing TEM10 in presence of piperacillin; format: functional
Escherichia coli [32] = assay: Antimicrobial activity against Escherichia coli expressing DHA-1 in presence of piperacillin; format: functional
Escherichia coli [33] = assay: Antimicrobial activity against Escherichia coli expressing OXA-23 in presence of piperacillin; format: functional
[34] = Inhibition of Escherichia coli beta-lactamase CTX-M-15 using nitrocefin as substrate measured after 20 mins
[35] = target: Carbapenem-hydrolyzing beta-lactamase KPC (Klebsiella pneumoniae, UniProt Q9F663); assay: Inhibition of Klebsiella pneumoniae beta-lactamase KPC-2 using nitrocefin as substrate measured after 20 mins
[36] = Inhibition of Klebsiella pneumoniae beta-lactamase CMY-2 using nitrocefin as substrate measured after 20 mins
[37] = Binding affinity to N289A (unknown origin) assessed as inhibition constant; design: species or system Homo sapiens
[38] = Binding affinity to AmpC (unknown origin) assessed as inhibition constant; design: species or system Homo sapiens
[39] = Binding affinity to TEM1 (unknown origin) assessed as inhibition constant; design: species or system Homo sapiens
[40] = Binding affinity to TEM30 (unknown origin) assessed as inhibition constant; design: species or system Homo sapiens

SMILES: O=C(Nc1cccc(-c2nnn[nH]2)c1)c1cc(C(F)(F)F)cc2[nH]cnc12
Ki [1]: 0.089 µM
Ki [2]: 97.3 µM
Ki [3]: 478 µM
Ki [4]: 25.8 µM
Ki (Beta-lactamase CTX-M-27): 0.28 µM
Ki [5]: 0.25 µM
Ki (Beta-lactamase [6]): 387 µM
Ki (Beta-lactamase CTX-M-14): 0.085 µM
Ki (Beta-lactamase TEM-1): Not Active

SMILES: O=C(Nc1cccc(-c2nnn[nH]2)c1)c1cccc(F)c1
Ki [7]: 2800 µM

SMILES: CCC(=O)N[C@H]1Cc2cccc(C(=O)O)c2OB1O [LEDABORBACTAM]
IC50 [11]: 9.04 µM
IC50 [12]: 0.066 µM
IC50 [13]: 0.368 µM
IC50 [14]: 38.1 µM
IC50 [15]: > 100 µM
IC50 [16]: 0.018 µM
IC50 [17]: 0.08 µM

SMILES: C[C@]12CNC(=O)[C@H]1N1C[C@@H](C2)N(OS(=O)(=O)[O-])C1=O.[Na+]
MIC (Escherichia coli [22]): 4 µg/mL
MIC (Escherichia coli [23]): 2 µg/mL
MIC (Escherichia coli [24]): 4 µg/mL
MIC (Escherichia coli [25]): 4 µg/mL
MIC (Escherichia coli [26]): 4 µg/mL
MIC (Escherichia coli [27]): 4 µg/mL
MIC (Escherichia coli [28]): 4 µg/mL
MIC (Escherichia coli [29]): 4 µg/mL
MIC (Escherichia coli [30]): 8 µg/mL
MIC (Escherichia coli [31]): 4 µg/mL
MIC (Escherichia coli [32]): 4 µg/mL
MIC (Escherichia coli [33]): 4 µg/mL

Results, then the compound that gave them:

IC50 (Beta-lactamase [8]): 0.014 µM
IC50 [9]: 0.19 µM
IC50 [10]: 0.004 µM
SMILES: CC1=C[C@H]2CN(C(=O)N2OS(=O)(=O)O)[C@@H]1C(N)=O

Ki [18]: 2540 µM
Ki [19]: 195 µM
SMILES: CC(c1nnn[nH]1)n1cnc2sc3c(c2c1=O)CCCC3 (single isomer, unassigned)

IC50 [20]: 4.72 µM
Ki [21]: 6.1 µM
SMILES: O=C(O)c1cn(CB(O)O)nn1

IC50 [34]: 0.14 µM
IC50 [35]: 0.044 µM
IC50 [36]: 0.116 µM
SMILES: NS(=O)(=O)C1CC[C@@H]2CN1C(=O)N2OS(=O)(=O)O (stereo partly drawn)

Ki [37]: 0.003 µM
Ki [38]: 0.01 µM
Ki [39]: 0.106 µM
Ki [40]: 3.8 µM
SMILES: O=C(O)/C=C/c1cccc([C@H](NC(=O)Cc2cccs2)B(O)O)c1
